Data from patent US20060148895A1, “New composition use and method” (priority 2002, published 2006).
Where two headings read alike, the source gives them in different places.

How the values were obtained:
[1] = cited from earlier work
[2] = cited from earlier work; remark: listed apart in the source
[3] = neat ethyl paraben; cited from earlier work
[4] = Washing-out properties: residuals of Pres. (18) components after rinsing the housing; conditions: to a 50 kg person
Protocol: In a safety evaluation it assumed that the entire volume of a housing is filled with the aqueous antimicrobial preservation composition as the worst case. […] (18). The housing was inserted in its device for extra-corporeal circulation treatment and rinsed with 900 ml of a Ringer-Acetate solution (Pharmacia, Inc) before clinical use. The residual concentration of the components of Pres. (18) after the rinsing procedure was then analyzed. The maximum concentrations found were below the detection limit: […]

[5] = 5 day covered contact in 50 human volunteers, cited from earlier work
[6] = healthy subjects; cited from earlier work
[7] = cited from earlier work; remark: listed apart in the source
[8] = cited from earlier work; remark: listed apart in the source
[9] = cited from earlier work; remark: listed apart in the source
[10] = after ingesting 2000 mg/day for 30 days; cited from earlier work

Structure (SMILES) | Repeated oral dose (Rat) - 25 weeks: signs of toxicity ([1]; diet containing 2% ethyl paraben, 25 weeks) | Acute oral LD50 (Rat) [2] [mg/kg] | Eye irritation (rabbit) [3] | Maximal intravenous dose from residuals [4] [mg/kg] | Skin irritation (human) ([5]; 7% solution in propylene glycol) | Skin sensitisation (human) [6] | Repeated oral dose (Rat) - 96 weeks: dose that gave no visible signs of toxicity or tissue changes in the major organs [1] | Intraperitoneal LD50 (Mouse) [7] [mg/kg] | Eye irritation (human): time within which irritation and burning sensation disappeared ([8]; solutions containing 0.1-0.3% methyl paraben) | Acute oral LD50 (Mouse) [9] [mg/kg] | Repeated oral dose (human) [10] | Skin irritation (human) ([5]; 5% solution in Propylene glycol) | Eye irritation (human) ([8]; solution containing 0.01% propyl paraben, contact time of 15 minutes in 60 patients) | Skin irritation (human) ([5]; 12% solution in Propylene glycol)
CCOC(=O)c1ccc(O)cc1 [Ethyl paraben] | paraben gave no visible signs | >4300 | slight irritation | <0.042 | glycol was non-irritant. (5 | No evidence of skin | – | – | – | – | – | – | – | –
COC(=O)c1ccc(O)cc1 [Methyl paraben] | – | – | – | 0.042 | – | No evidence of skin | 900-1200 mg/kg/day gave no | 960 | disappeared within 1 minute | >8000 | No obvious toxic effects | glycol was non-irritant. (5 | – | –
CCCOC(=O)c1ccc(O)cc1 [Propyl paraben] | – | – | – | <0.042 | – | – | 900-1200 mg/kg/day gave no | 640 | – | >8000 | – | – | propyl paraben produced no | glycol was non-irritant. (5
CC(O)CO (stereo not drawn) [Propylene glycol] | – | – | – | <0.022 | – | – | – | – | – | – | – | – | – | –
